# Experimental data published in article PMC5078989, “Targeted inhibition of the COP9 signalosome for treatment of cancer” (Nature Communications, 2016).
# System: panel of cancer cell lines
# Test: Cell viability (CellTiter-Glo) dose-response across cancer cell line panel;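 on EC50: after 72 h compound incubation with CellTiter-Glo ATP readout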
# Type: cell-based, human
# Settings: for EC50: Homo sapiens
# Source text: Next, we explored the effect of CSN5 inhibition on the viability of cancer cells. To obtain a comprehensive picture, we generated dose–response curves with a CSN5 inhibitor across more than 500 cancer cell lines in a previously described standardized setting[47] (Supplementary Data 1).
# A standardized CellTiter-Glo Assay (Promega #G7570) based on the quantification of ATP was applied according to the manufacturer's protocol to measure the amount of viable cells in culture. In brief, cells were seeded into 384-well plates at optimal density for each cell line. After 4 h, compounds were added at different concentrations in growth medium and incubated for another 72 h in a humidifying chamber at 37 °C and 5% CO2. […] EC50 values were calculated from the plot of percentage of inhibition versus inhibitor concentration using the nonlinear regression analysis software Origin 7.5SR6 (OriginLab Corp.).
structure (smiles),measurement,setting,value
"COCc1ccccc1NCc1ccc([C@@H]2[C@H](O)CCCc3cncn32)c(-c2ccccc2Cl)c1 [CSN5i-2e, (5R,6R)-5-(2′-chloro-5-(((2-(methoxymethyl)phenyl)amino)methyl)-[1,1′-biphenyl]-2-yl)-6,7,8,9-tetrahydro-5H-imidazo[1,5-a]azepin-6-ol]",EC50,SNU-685 cells,> 30 µM
same,EC50,SNU-738 cells,14.6 µM
same,EC50,SNU-761 cells,11.3 µM
same,EC50,SNU-1040 cells,18.9 µM
same,EC50,SNU-1079 cells,13.1 µM
same,EC50,"SNU-C1, SNU-C1 cells",17.8 µM
same,EC50,SNU-C2A cells,10.7 µM
same,EC50,"SNU-C4, SNU-C4 cells",13.7 µM
same,EC50,SNU-C5 cells,8.36 µM
same,EC50,"SR-786, SR-786 cells",11.4 µM
same,EC50,"SU-DHL10, SU-DHL-10 cells",5.76 µM
same,EC50,"SU-DHL-4, SU-DHL-4 cells",10.9 µM
same,EC50,"SU-DHL-5, SU-DHL-5 cells",4.35 µM
same,EC50,"SU-DHL-6, SU-DHL-6 cells",6.01 µM
same,EC50,"SU-DHL-8, SU-DHL-8 cells",6.55 µM
same,EC50,"SU.86.86, SU.86.86 cells",10.8 µM
same,EC50,SUM44PE cells,26.1 µM
same,EC50,"SUM52PE, SUM52PE cells",3.38 µM
same,EC50,"SUM149PT, SUM149PT cells",10.6 µM
same,EC50,"SUM-159-PT, SUM159PT cells",11.1 µM
same,EC50,"SUP-T1, SUP-T1 cells",10.1 µM
same,EC50,"SW48, SW48 cells",12.2 µM
same,EC50,"SW480, SW480 cells",9.61 µM
same,EC50,"SW982, SW982 cells",11.4 µM
same,EC50,"SW1088, SW 1088 cells",10.6 µM
same,EC50,"SW1271, SW 1271 cells",18.7 µM
same,EC50,"SW1573, SW 1573 cells",9.37 µM
same,EC50,"SW1783, SW 1783 cells",> 30 µM
same,EC50,"SW-403, SW403 cells",23.8 µM
same,EC50,"SW-620, SW620 cells",21.8 µM
same,EC50,SYO-1 cells,11.2 µM
same,EC50,Sq-1 cells,11.8 µM
same,EC50,"T3M4, T3M-4 cells",18.8 µM
same,EC50,"T47D, T-47D cells",7.39 µM
same,EC50,TANOUE cells,6.4 µM
same,EC50,"TC-71, TC-71 cells",9.61 µM
same,EC50,TCC-PAN2 cells,28.9 µM
same,EC50,"TE-6, TE-6 cells",14 µM
same,EC50,"TE-11, TE-11 cells",10.7 µM
same,EC50,"TE-15, TE-15 cells",15.1 µM
same,EC50,"TF-1, TF-1 cells",8.75 µM
same,EC50,"THP-1, THP-1 cells",5.46 µM
same,EC50,TYK-nu cells,10.6 µM
same,EC50,U266B1 cells,9.53 µM
same,EC50,"U-118-MG, U-118 MG cells",25.3 µM
same,EC50,"U-937, U-937 cells",7.39 µM
same,EC50,"UACC-62, UACC-62 cells",13.9 µM
same,EC50,"UACC-257, UACC-257 cells",11.2 µM
same,EC50,"UCH1, UCH-1 cells",14.7 µM
same,EC50,"UKE1, UKE1 cells",9.11 µM
same,EC50,"VM-CUB-1, VM-CUB1 cells",4.45 µM
same,EC50,VMRC-LCD cells,11 µM
same,EC50,VMRC-RCW cells,11.9 µM
same,EC50,"WM 266-4, WM-266-4 cells",17.1 µM
same,EC50,"WM983B, WM-983B cells",9.66 µM
same,EC50,WM-88 cells,13.6 µM
same,EC50,"WM-115, WM-115 cells",7.37 µM
same,EC50,WSU-WM cells,7.7 µM
same,EC50,"YAPC, YAPC cells",11.5 µM
same,AMAX,Hs 695T cells,-86.8488
same,AMAX,Hs 936.T cells,-93.4541
same,AMAX,HuG1-N cells,-87.0263
same,AMAX,HuH-7 cells,-97.6516
same,AMAX,IGR-37 cells,-77.0355
same,AMAX,IGROV1 cells,-71.2355
same,AMAX,IPC-298 cells,-72.365
same,AMAX,Ishikawa cells,-88.4272
same,AMAX,J82 cells,-35.798
same,AMAX,JHH-4 cells,-90.0924
same,AMAX,JHOS-2 cells,-45.7705
same,AMAX,JHUEM-2 cells,-96.4199
same,AMAX,JHUEM-3 cells,-54.8666
same,AMAX,JL-1 cells,-68.6834
same,AMAX,JVM-2 cells,-97.127
same,AMAX,KARPAS-422 cells,-93.641
same,AMAX,KATO III cells,-77.3764
same,AMAX,KBM-7 cells,-97.1328
same,AMAX,KE-97 cells,-93.3813
same,AMAX,KMRC-1 cells,-75.0974
same,AMAX,KP-1N cells,-76.285
same,AMAX,KP-2 cells,-93.6503
same,AMAX,KP-3 cells,-72.8527
same,AMAX,KU-19-19 cells,-88.0441
same,AMAX,KYSE-150 cells,-68.4693
same,AMAX,KYSE-180 cells,-91.1186
same,AMAX,Kasumi3 cells,-95.9336
same,AMAX,L-363 cells,-92.1173
same,AMAX,LC2/ad cells,-70.6199
same,AMAX,LCLC-103H cells,-71.5681
same,AMAX,MFE-280 cells,-75.2715
same,AMAX,MM138 cells,-91.9111
same,AMAX,MM415 cells,-83.1051
same,AMAX,MM426 cells,-57.5258
same,AMAX,MM485 cells,-82.1717
same,AMAX,MM537 cells,-84.9338
same,AMAX,MOLT-16 cells,-96.4687
same,AMAX,MeWo cells,-73.0371
same,AMAX,NB-1 cells,-97.6901
same,AMAX,NCI-H82 cells,-96.2323
same,AMAX,NCI-H146 cells,-95.028
same,AMAX,NCI-H322 cells,-82.8728
same,AMAX,NCI-H441 cells,-78.9188
same,AMAX,NCI-H810 cells,-2.884
same,AMAX,NCI-H841 cells,-94.3751
same,AMAX,NCI-H1373 cells,-93.5484
same,AMAX,NCI-H1568 cells,-98.9282
same,AMAX,NCI-H1755 cells,-88.1389
same,AMAX,NCI-H2023 cells,-87.7102
same,AMAX,NCI-H2087 cells,-85.0078
same,AMAX,NCI-H2452 cells,-48.2134
same,AMAX,ONCO-DG-1 cells,-95.499
same,AMAX,OUMS-23 cells,-91.7164
same,AMAX,OV56 cells,-92.0115
same,AMAX,P3HR-1 cells,-92.6521
same,AMAX,P12-ICHIKAWA cells,-96.1728
same,AMAX,PA-TU-8988T cells,-59.6796
same,AMAX,PANC-1 cells,-78.7196
same,AMAX,PC-3 cells,-66.4355
same,AMAX,PE/CA-PJ49 cells,-89.0883
same,AMAX,PF-382 cells,-96.9256
same,AMAX,Panc 03.27 cells,-56.1495
same,AMAX,Panc 04.03 cells,-74.9732
same,AMAX,Panc 10.05 cells,-81.9961
same,AMAX,RD-ES cells,-95.6768
same,AMAX,RT-112 cells,-70.4236
same,AMAX,SEM cells,-91.5844
same,AMAX,SF-268 cells,-46.326
same,AMAX,SK-ES-1 cells,-87.9534
same,AMAX,SK-MEL-3 cells,-63.3656
